{
  "source": "patent US10538555B2",
  "about": "“Macrocyclic inhibitors of the PD-1/PD-L1 and CD80(B7-1)/PD-L1 protein/protein interactions” (BRISTOL-MYERS SQUIBB COMPANY, priority 2014, dated 2020)",
  "biological_target": "T1, Human PD-L1/PD-1 (Homo sapiens, UniProt Q9NZQ7)",
  "T1 construct": "TVMV protease cleavage site (C); made in house; host or cells: HEK293T cells",
  "T1 sequence (Q9NZQ7 with tags, fused parts or gaps)": "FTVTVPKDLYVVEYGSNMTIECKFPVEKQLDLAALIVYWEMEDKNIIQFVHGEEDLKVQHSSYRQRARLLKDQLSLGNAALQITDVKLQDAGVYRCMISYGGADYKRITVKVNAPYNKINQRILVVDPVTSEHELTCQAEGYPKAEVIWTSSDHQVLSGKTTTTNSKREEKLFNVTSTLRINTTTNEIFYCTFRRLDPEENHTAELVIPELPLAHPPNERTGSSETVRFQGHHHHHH",
  "test": "HTRF Human PD-L1/PD-1 binding assay (PD-1-Ig/PD-L1-His)",
  "conditions": "PD-L1-His 10 nM, PD-1-Ig 20 nM; class symbol; read-out: HTRF Human PD-L1/PD-1 Binding Assay IC50 Range",
  "method_in_brief": "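Inhibitors were preincubated 15 min with human PD-L1(18-239)-His (10 nM final), then PD-1(25-167)-Ig (20 nM final) was added for 15 min in dPBS/0.1% BSA/0.05% Tween-20. Eu-cryptate anti-Ig (1 nM) and APC anti-His (20 nM) were added; 665/620 nm ratio read after 30 min.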",
  "note": "pIC50: −log10 of the molar value. *1 amine or outer side, *2 acyl side, *3 side chain or, on linkers, in order; H or OH if unused. Where a SMILES comes first, the peptide text is derived from it. Bridges are numbered along the chain shown (N, C = ends). [ ]: non-standard residue; d: D form. Trp(1-CH2COOH) = N[C@@H](Cc1cn(CC(=O)O)c2ccccc12)C(=O)O; Phe(3,4,5-F3) = N[C@@H](Cc1cc(F)c(F)c(F)c1)C(=O)O; NMePhe(4-F) = CN[C@@H](Cc1ccc(F)cc1)C(=O)O; d(cisHyp) = O=C(O)[C@H]1C[C@@H](O)CN1; NMeF = CN[C@@H](Cc1ccccc1)C(=O)O; X1 = O=C([C@H]1COCCN1[*:1])[*:2]; dHyp = O=C(O)[C@H]1C[C@H](O)CN1; NMeNle = CCCC[C@H](NC)C(=O)O; dPip = O=C(O)[C@H]1CCCCN1; Orn = NCCC[C@H](N)C(=O)O; Dab = NCC[C@H](N)C(=O)O; Dap = NC[C@H](N)C(=O)O",
  "data": [
    {"molecule": "CCCC[C@H]1C(=O)N2CCC[C@@H]2C(=O)N[C@@H](CC(N)=O)C(=O)N[C@@H](C(C)C)C(=O)N(C)[C@@H](Cc2ccccc2)C(=O)N[C@@H](CCC(=O)O)C(=O)N2CCCC[C@@H]2C(=O)N[C@@H](Cc2c[nH]c3ccccc23)C(=O)N[C@@H](Cc2ccc(O)cc2)C(=O)N[C@@H](CC(C)C)C(=O)N[C@H](C(=O)NCC(N)=O)CSCC(=O)N[C@@H](Cc2cc(F)c(F)c(F)c2)C(=O)N(C)[C@@H](Cc2ccc(F)cc2)C(=O)N1C", "note": "[Example 10579] ({CH2CO}-[Phe(3,4,5-F3)][NMePhe(4-F)][NMeNle][dP]NV[NMeF]E[dPip]WYLCG-NH2; thioether N-13)", "values": [
      {"measurement": "pIC50", "result": "8.00 to 9.00"}
    ]},
    {"molecule": "CCCC[C@H]1C(=O)N2CCC[C@@H]2C(=O)N[C@@H](CCC(=O)O)C(=O)N[C@@H](C(C)C)C(=O)N(C)[C@@H](Cc2ccccc2)C(=O)N[C@@H](CC(=O)O)C(=O)N2CCCC[C@@H]2C(=O)N[C@@H](Cc2c[nH]c3ccccc23)C(=O)N[C@@H](Cc2ccc(O)cc2)C(=O)N[C@@H](CC(C)C)C(=O)N[C@H](C(=O)NCC(N)=O)CSCC(=O)N[C@@H](Cc2cc(F)c(F)c(F)c2)C(=O)N(C)[C@@H](Cc2ccc(F)cc2)C(=O)N1C", "note": "[Example 10580] ({CH2CO}-[Phe(3,4,5-F3)][NMePhe(4-F)][NMeNle][dP]EV[NMeF]D[dPip]WYLCG-NH2; thioether N-13)", "values": [
      {"measurement": "pIC50", "result": "8.00 to 9.00"}
    ]},
    {"molecule": "CCCC[C@H]1C(=O)N2CCC[C@@H]2C(=O)N[C@@H](CCN)C(=O)N[C@@H](C(C)C)C(=O)N(C)[C@@H](Cc2ccccc2)C(=O)N[C@@H](CC(=O)O)C(=O)N2CCCC[C@@H]2C(=O)N[C@@H](Cc2c[nH]c3ccccc23)C(=O)N[C@@H](Cc2ccc(O)cc2)C(=O)N[C@@H](CC(C)C)C(=O)N[C@H](C(=O)NCC(N)=O)CSCC(=O)N[C@@H](Cc2cc(F)c(F)c(F)c2)C(=O)N(C)[C@@H](Cc2ccc(F)cc2)C(=O)N1C", "note": "[Example 10581] ({CH2CO}-[Phe(3,4,5-F3)][NMePhe(4-F)][NMeNle][dP][Dab]V[NMeF]D[dPip]WYLCG-NH2; thioether N-13)", "values": [
      {"measurement": "pIC50", "result": "7.00 to 8.00"}
    ]},
    {"molecule": "CCCC[C@H]1C(=O)N2CCC[C@@H]2C(=O)N[C@@H](CN)C(=O)N[C@@H](C(C)C)C(=O)N(C)[C@@H](Cc2ccccc2)C(=O)N[C@@H](CC(=O)O)C(=O)N2CCCC[C@@H]2C(=O)N[C@@H](Cc2c[nH]c3ccccc23)C(=O)N[C@@H](Cc2ccc(O)cc2)C(=O)N[C@@H](CC(C)C)C(=O)N[C@H](C(=O)NCC(N)=O)CSCC(=O)N[C@@H](Cc2cc(F)c(F)c(F)c2)C(=O)N(C)[C@@H](Cc2ccc(F)cc2)C(=O)N1C", "note": "[Example 10582] ({CH2CO}-[Phe(3,4,5-F3)][NMePhe(4-F)][NMeNle][dP][Dap]V[NMeF]D[dPip]WYLCG-NH2; thioether N-13)", "values": [
      {"measurement": "pIC50", "result": "8.00 to 9.00"}
    ]},
    {"molecule": "CCCC[C@H]1C(=O)N2CCC[C@@H]2C(=O)N[C@@H](CO)C(=O)N[C@@H](C(C)C)C(=O)N(C)[C@@H](Cc2ccccc2)C(=O)N[C@@H](CC(=O)O)C(=O)N2CCCC[C@@H]2C(=O)N[C@@H](Cc2c[nH]c3ccccc23)C(=O)N[C@@H](Cc2ccc(O)cc2)C(=O)N[C@@H](CC(C)C)C(=O)N[C@H](C(=O)NCC(N)=O)CSCC(=O)N[C@@H](Cc2cc(F)c(F)c(F)c2)C(=O)N(C)[C@@H](Cc2ccc(F)cc2)C(=O)N1C", "note": "[Example 10583] ({CH2CO}-[Phe(3,4,5-F3)][NMePhe(4-F)][NMeNle][dP]SV[NMeF]D[dPip]WYLCG-NH2; thioether N-13)", "values": [
      {"measurement": "pIC50", "result": "8.00 to 9.00"}
    ]},
    {"molecule": "CCCC[C@H]1C(=O)N2CCC[C@@H]2C(=O)N[C@@H](CC(N)=O)C(=O)N[C@@H](C(C)C)C(=O)N(C)[C@@H](Cc2ccccc2)C(=O)N[C@@H](CC(=O)O)C(=O)N2CCCC[C@@H]2C(=O)N[C@@H](Cc2c[nH]c3ccccc23)C(=O)N[C@@H](Cc2ccc(O)cc2)C(=O)N[C@@H](CC(C)C)C(=O)N[C@H](C(=O)NCC(N)=O)CSCC(=O)N[C@@H](Cc2cc(F)c(F)c(F)c2)C(=O)N(C)[C@@H](Cc2ccc(F)cc2)C(=O)N1C", "note": "[Example 10584] ({CH2CO}-[Phe(3,4,5-F3)][NMePhe(4-F)][NMeNle][dP]NV[NMeF]D[dPip]WYLCG-NH2; thioether N-13)", "values": [
      {"measurement": "pIC50", "result": "8.00 to 9.00"}
    ]},
    {"molecule": "CCCC[C@H]1C(=O)N2C[C@@H](O)C[C@@H]2C(=O)N[C@@H](CC(=O)O)C(=O)N[C@@H](C(C)C)C(=O)N(C)[C@@H](Cc2ccccc2)C(=O)N[C@@H](CCC(=O)O)C(=O)N2CCCC[C@@H]2C(=O)N[C@@H](Cc2cn(CC(=O)O)c3ccccc23)C(=O)N[C@@H](Cc2ccc(O)cc2)C(=O)N[C@@H](CCN)C(=O)N[C@H](C(=O)NCC(N)=O)CSCC(=O)N[C@@H](Cc2cc(F)c(F)c(F)c2)C(=O)N(C)[C@@H](Cc2ccccc2)C(=O)N1C", "note": "[Example 10585] ({CH2CO}-[Phe(3,4,5-F3)][NMeF][NMeNle][dHyp]DV[NMeF]E[dPip][Trp(1-CH2COOH)]Y[Dab]CG-NH2; thioether N-13)", "values": [
      {"measurement": "pIC50", "result": "8.00 to 9.00"}
    ]},
    {"molecule": "CCCC[C@H]1C(=O)N2C[C@@H](O)C[C@@H]2C(=O)N[C@@H](CC(=O)O)C(=O)N[C@@H](C(C)C)C(=O)N(C)[C@@H](Cc2ccccc2)C(=O)N[C@@H](CCC(=O)O)C(=O)N2CCCC[C@@H]2C(=O)N[C@@H](Cc2cn(CC(=O)O)c3ccccc23)C(=O)N[C@@H](Cc2ccc(O)cc2)C(=O)N[C@@H](CC(C)C)C(=O)N[C@H](C(=O)NCC(N)=O)CSCC(=O)N[C@@H](Cc2cc(F)c(F)c(F)c2)C(=O)N(C)[C@@H](Cc2ccccc2)C(=O)N1C", "note": "[Example 10586] ({CH2CO}-[Phe(3,4,5-F3)][NMeF][NMeNle][dHyp]DV[NMeF]E[dPip][Trp(1-CH2COOH)]YLCG-NH2; thioether N-13)", "values": [
      {"measurement": "pIC50", "result": "8.00 to 9.00"}
    ]},
    {"molecule": "CCCC[C@H]1C(=O)N2CCC[C@@H]2C(=O)N[C@@H](CO)C(=O)N[C@@H](C(C)C)C(=O)N(C)[C@@H](Cc2ccccc2)C(=O)N[C@@H](CCC(=O)O)C(=O)N2CCCC[C@@H]2C(=O)N[C@@H](Cc2c[nH]c3ccccc23)C(=O)N[C@@H](Cc2ccc(O)cc2)C(=O)N[C@@H](CC(C)C)C(=O)N[C@H](C(=O)NCC(N)=O)CSCC(=O)N[C@@H](Cc2cc(F)c(F)c(F)c2)C(=O)N(C)[C@@H](Cc2ccc(F)cc2)C(=O)N1C", "note": "[Example 10587] ({CH2CO}-[Phe(3,4,5-F3)][NMePhe(4-F)][NMeNle][dP]SV[NMeF]E[dPip]WYLCG-NH2; thioether N-13)", "values": [
      {"measurement": "pIC50", "result": "8.00 to 9.00"}
    ]},
    {"molecule": "CCCC[C@H]1C(=O)N2C[C@H](O)C[C@@H]2C(=O)N[C@@H](CC(=O)O)C(=O)N[C@@H](C(C)C)C(=O)N(C)[C@@H](Cc2ccccc2)C(=O)N[C@@H](CCC(=O)O)C(=O)N2CCOC[C@@H]2C(=O)N[C@@H](Cc2c[nH]c3ccccc23)C(=O)N[C@@H](Cc2ccc(O)cc2)C(=O)N[C@@H](CCCN)C(=O)N[C@H](C(=O)NCC(N)=O)CSCC(=O)N[C@@H](Cc2cc(F)c(F)c(F)c2)C(=O)N(C)[C@@H](Cc2ccc(F)cc2)C(=O)N1C", "note": "[Example 10590] ({CH2CO}-[Phe(3,4,5-F3)][NMePhe(4-F)][NMeNle][d(cisHyp)]DV[NMeF]E[X1]WY[Orn]CG-NH2; thioether N-13)", "values": [
      {"measurement": "pIC50", "result": "8.00 to 9.00"}
    ]},
    {"molecule": "CCCC[C@H]1C(=O)N2C[C@H](O)C[C@@H]2C(=O)N[C@@H](CC(=O)O)C(=O)N[C@@H](C(C)C)C(=O)N(C)[C@@H](Cc2ccccc2)C(=O)N[C@@H](CCC(=O)O)C(=O)N2CCOC[C@@H]2C(=O)N[C@@H](Cc2c[nH]c3ccccc23)C(=O)N[C@@H](Cc2ccc(O)cc2)C(=O)N[C@@H](CC(N)=O)C(=O)N[C@H](C(=O)NCC(N)=O)CSCC(=O)N[C@@H](Cc2cc(F)c(F)c(F)c2)C(=O)N(C)[C@@H](Cc2ccc(F)cc2)C(=O)N1C", "note": "[Example 10591] ({CH2CO}-[Phe(3,4,5-F3)][NMePhe(4-F)][NMeNle][d(cisHyp)]DV[NMeF]E[X1]WYNCG-NH2; thioether N-13)", "values": [
      {"measurement": "pIC50", "result": "8.00 to 9.00"}
    ]}
  ]
}
